Source: patent US10399937B2, “Ionizable cationic lipid for RNA delivery” (Arcturus Therapeutics, Inc., priority 2013, dated 2019)

Legend:
[1] = pKa of the cationic lipid (Table 1); assay type: physicochemical
[2] = system: Factor VII; assay: In vivo mouse Factor VII silencing (siRNA in liposome formulations with the cationic lipid); design: species or system C57BL/6 mice; conditions: C57BL6 mice; for ability to knockdown Factor VII in mouse plasma (FIGS. 1 and 2): 0.3 mg/kg, compared to controls (MC3, NC1, ATX-547, ATX-003); for Factor VII knockdown in mouse plasma (FIGS. 3 and 4): second series with MC3, NC1, ATX-547, ATX-004, ATX-006, ATX-010, ATX-001
Protocol: Using a liver-directed in vivo screen of the liposome libraries, a series of compounds were tested that facilitate high levels of siRNA mediated gene silencing in hepatocytes, the cells comprising the liver parenchyma. Factor VII, a blood clotting factor, is a suitable target gene for assaying functional siRNA delivery to liver. Because this factor is produced specifically in hepatocytes, gene silencing indicates successful delivery to parenchyma, as opposed to delivery to the cells of the reticulo-endothelial system (e.g., Kupffer cells). Furthermore, Factor VII is a secreted protein that can be readily measured in serum, obviating the need to euthanize animals. Silencing at the mRNA level can be readily determined by measuring levels of protein. This is because the protein's short half-life (2-5 hour). C57BL/6 mice (Charles River Labs) received either saline or siRNA in liposome formulations via tail vein injection at a volume of 0.006 ml/g. At 48 h after administration, animals were anesthetized by isofluorane inhalation and blood was collected into serum separator tubes by retroorbital bleed. Serum levels of Factor VII protein were determined in samples using a chromogenic assay (Biophen FVII, Aniara Corporation) according to manufacturers' protocols. A standard curve was generated using serum collected from saline-treated animals.
Compositions with siRNA directed to […] were formulated with ATX-001, ATX-002, ATX-003, and ATX-547, and comparator samples NC1 and MC3 (Alnylam). These were injected into animals at 0.3 mg/kg and at 1 mg/kg. The siRNA encapsulated by MC3 (0.3 mg/kg), NC1 (0.3 mg/kg), ATX-547 (0.3 mg/kg), ATX-001 (0.3 and 1.0 mg/kg), ATX-002 (0.3 and 1.0 mg/kg), and ATX-003 (0.3 and 1.0 mg/kg) was measured for the ability to knockdown Factor VII in mouse plasma following administration of the siRNA formulation to C57BL6 mice.
The siRNA encapsulated MC3 (0.3 and 1.5 mg/kg), NC1 (0.3 mg/kg), ATX-547 (0.1 and 0.3 mg/kg), ATX-004 (0.3), ATX-006 (0.3 and 1.0 mg/kg), ATX-010 (0.3 mg/kg), and ATX-001 (0.3 and 1.5 mg/kg), was measured for Factor VII knockdown in mouse plasma following administration of the siRNA formulation to C57BL6 mice. […] The knockdown activity of the exemplary compounds is shown for 0.3 mg/kg or at 0.05 mg/kg for ATX-018, ATX-019, and ATX-020 (Table 1).

Row | Structure (SMILES) | pKa [1] | ability to knockdown Factor VII in mouse plasma (FIGS. 1 and 2) [2] | Factor VII knockdown in mouse plasma (FIGS. 3 and 4) [2]
1 | CCCCCC/C=C\COC(=O)CCCCCCCN(CCCCCCCC(=O)OC/C=C\CCCCCC)C(=O)CSCCN(CC)CC [ATX-006] | 9.8 | – | –
2 | CCCCCC/C=C\COC(=O)CCCCCCCN(CCCCCCCC(=O)OC/C=C\CCCCCC)C(=O)CSCCN(C)C [ATX-001] | 8.9 | most effective | most effective
3 | CCCCCC/C=C\COC(=O)CCCCCCCN(CCCCCCCC(=O)OC/C=C\CCCCCC)C(=O)SCCCN(C)C [ATX-003] | 9.3 | – | –
4 | CCCCCC/C=C\COC(=O)CCCCCCCN(CCCCCCCC(=O)OC/C=C\CCCCCC)C(=O)SCCCN(C)CC [ATX-011] | 9.4 | – | –
5 | CCCCCC/C=C\COC(=O)CCCCCCCN(CCCCCCCC(=O)OC/C=C\CCCCCC)C(=O)CSCCCN(C)CC [ATX-007] | 9.5 | – | –
6 | CCCCCC/C=C\COC(=O)CCCCCCCN(CCCCCCCC(=O)OC/C=C\CCCCCC)C(=O)SCCN(CC)CC [ATX-010] | 9.6 | – | most effective
7 | CCCCCC/C=C\COC(=O)CCCCCCCN(CCCCCCCC(=O)OC/C=C\CCCCCC)C(=O)CSCCCN(CC)CC [ATX-008] | 10.3 | – | –
8 | CCCCCC/C=C\COC(=O)CCCCCCCN(CCCCCCCC(=O)OC/C=C\CCCCCC)C(=O)CSCCCN(C)C [ATX-004] | 9.4 | – | –
9 | CCCCCC/C=C\COC(=O)CCCCCCCN(CCCCCCCC(=O)OC/C=C\CCCCCC)C(=O)SCCN(C)C [ATX-002] | 8.7 | most effective | –
10 | CCCCCC/C=C\COC(=O)CCCCCCCN(CCCCCCCC(=O)OC/C=C\CCCCCC)C(=O)CSCCN(C)CC [ATX-005] | 9 | – | –
11 | CCCCCC/C=C\COC(=O)CCCCCCCN(CCCCCCCC(=O)OC/C=C\CCCCCC)C(=O)SCCN(C)CC [ATX-009] | 8.8 | – | –
12 | CCCCCC/C=C\COC(=O)CCCCCCCN(CCCCCCCC(=O)OC/C=C\CCCCCC)C(=O)SCCCN(CC)CC [ATX-012] | 10.2 | – | –
